Experimental data from patent US9216991B2 (Ares Trading S.A., priority 2012, dated 2015).
Structures can show the parent of a compound that is named as a salt.

What follows are compounds tested against T1, IRAK4 (Homo sapiens, UniProt Q9NWZ3) (assay: IRAK4 Enzymatic Assay). Details: His-TEV-IRAK4 20 ng/well, ATP 2 μM, STK1-biotin peptide 300 nM, 3 hours at 30° C., FlashPlate radioactivity.
T1 construct: His (N); TEV cleavage site (N)
T1 sequence (Q9NWZ3 1-460): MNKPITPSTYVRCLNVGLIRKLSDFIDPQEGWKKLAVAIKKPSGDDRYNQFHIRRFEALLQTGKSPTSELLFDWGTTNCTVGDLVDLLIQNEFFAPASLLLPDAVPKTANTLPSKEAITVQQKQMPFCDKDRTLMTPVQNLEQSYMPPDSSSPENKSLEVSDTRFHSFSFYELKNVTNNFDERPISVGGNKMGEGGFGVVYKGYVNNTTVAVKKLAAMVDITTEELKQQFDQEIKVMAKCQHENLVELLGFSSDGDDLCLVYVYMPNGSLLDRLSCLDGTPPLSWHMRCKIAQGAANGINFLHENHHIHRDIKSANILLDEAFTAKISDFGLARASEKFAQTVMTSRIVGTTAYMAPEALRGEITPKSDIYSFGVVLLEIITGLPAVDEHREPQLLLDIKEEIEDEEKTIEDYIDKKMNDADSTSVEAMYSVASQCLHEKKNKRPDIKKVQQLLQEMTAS
Assay type: biochemical
Method in brief: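 Radiometric FlashPlate readout: biotin-STK1 substrate (300 nM) captured on streptavidin after EDTA stop and washes. Reaction used His-TEV-IRAK4 (20 ng/well), 2 μM [^33P]-spiked ATP and compound (1 nM-20 μM), incubated 3 h at 30 °C in 50 mM HEPES pH 7.0, 10 mM MgCl2, 5 mM MnCl2, 2 mM DTT.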
In the case of `Cn1cc(-c2cccc(-c3ncc(-c4cnn(C[C@@H]5CCCN5)c4)cn3)c2)cn1` [Example 70, 2-[3-(1-Methyl-1H-pyrazol-4-yl)-phenyl]-5-(1-(S)-1-pyrrolidin-2-ylmethyl-1H-pyrazol-4-yl)-pyrimidine hydrochloride], the IC50 is reported as 1000 to 5000 nM. Work on `Cn1cc(-c2cccc(-c3ncc(-c4cnn(C[C@H]5CCCN5)c4)cn3)c2)cn1` [Example 71, 2-[3-(1-Methyl-1H-pyrazol-4-yl)-phenyl]-5-(1-(R)-1-pyrrolidin-2-ylmethyl-1H-pyrazol-4-yl)-pyrimidine hydrochloride] yielded an IC50 of 1000 to 5000 nM. `Cn1cc(-c2cccc(-c3ncc(-c4cnn(C5CCNCC5)c4)cn3)c2)nn1` [Example 72, 2-[3-(1-Methyl-1H-[1,2,3]triazol-4-yl)-phenyl]-5-(1-piperidin-4-yl-1H-pyrazol-4-yl)-pyrimidine hydrochloride] was tested, and the IC50 was 1000 to 5000 nM. In the case of `Cn1cc(-c2cccc(-c3ncc(-c4cnn(CC(=O)N5CCOC(CCO)C5)c4)cn3)c2)cn1` (stereo not drawn) [Example 75, 1-[2-(2-Hydroxy-ethyl)-morpholin-4-yl]-2-(4-{2-[3-(1-methyl-1H-pyrazol-4-yl)-phenyl]-pyrimidin-5-yl}-pyrazol-1-yl)-ethanone], the IC50 is reported as 100 to 1000 nM. For `Cn1cc(-c2cccc(-c3ncc(-c4cnn(C5CCN(S(C)(=O)=O)CC5)c4)cn3)c2)cn1` [Example 76, 5-[1-(1-Methanesulfonyl-piperidin-4-yl)-1H-pyrazol-4-yl]-2-[3-(1-methyl-1H-pyrazol-4-yl)-phenyl]-pyrimidine], the IC50 was 100 to 1000 nM. `Cn1cc(-c2cccc(-c3ncc(-c4cnn(CC(=O)N5CCC5)c4)cn3)c2)cn1` [Example 77, 1-Azetidin-1-yl-2-(4-{2-[3-(1-methyl-1H-pyrazol-4-yl)-phenyl]-pyrimidin-5-yl}-pyrazol-1-yl)-ethanone] gave an IC50 of 100 to 1000 nM. With `O=C(Cn1cc(-c2cnc(-c3cccc(-c4cnco4)c3)nc2)cn1)N1CCOCC1` [Example 78, 1-Morpholin-4-yl-2-{4-[2-(3-oxazol-5-yl-phenyl)-pyrimidin-5-yl]-pyrazol-1-yl}-ethanone] the IC50 was 100 to 1000 nM. With `O=C(Cn1cc(-c2cnc(-c3cccc(-c4c[nH]nn4)c3)nc2)cn1)N1CCOCC1` [Example 79, 1-Morpholin-4-yl-2-(4-{2-[3-(1H-[1,2,3]triazol-4-yl)-phenyl]-pyrimidin-5-yl}-pyrazol-1-yl)-ethanone] the IC50 was 1000 to 5000 nM. `CC1CN(C(=O)Cn2cc(-c3cnc(-c4cccc(-c5cnn(C)c5)c4)nc3)cn2)CCO1` (stereo not drawn) [Example 80, 1-(2-Methyl-morpholin-4-yl)-2-(4-{2-[3-(1-methyl-1H-pyrazol-4-yl)-phenyl]-pyrimidin-5-yl}-pyrazol-1-yl)-ethanone] showed an IC50 of 100 to 1000 nM. For `Cn1cc(-c2cccc(-c3ncc(-c4cnn(CC(=O)N5CCC[C@H]5CO)c4)cn3)c2)cn1` [Example 81, 1-((S)-2-Hydroxymethyl-pyrrolidin-1-yl)-2-(4-{2-[3-(1-methyl-1H-pyrazol-4-yl)-phenyl]-pyrimidin-5-yl}-pyrazol-1-yl)-ethanone], the IC50 was 100 to 1000 nM. For `Cn1cc(-c2cccc(-c3ncc(-c4cnn(CCC(=O)N5CCOCC5)c4)cn3)c2)cn1` [Example 83, 3-(4-{2-[3-(1-Methyl-1H-pyrazol-4-yl)-phenyl]-pyrimidin-5-yl}-pyrazol-1-yl)-1-morpholin-4-yl-propan-1-one], the IC50 was 1000 to 5000 nM. Compound `Cn1cc(-c2cccc(-c3ncc(-c4cnn(CCC(=O)N5CCCC5)c4)cn3)c2)cn1` [Example 84, 3-(4-{2-[3-(1-Methyl-1H-pyrazol-4-yl)-phenyl]-pyrimidin-5-yl}-pyrazol-1-yl)-1-pyrrolidin-1-yl-propan-1-one] has an IC50 of 1000 to 5000 nM. With `CN(C)C(=O)CCn1cc(-c2cnc(-c3cccc(-c4cnn(C)c4)c3)nc2)cn1` [Example 85, N,N-Dimethyl-3-(4-{2-[3-(1-methyl-1H-pyrazol-4-yl)-phenyl]-pyrimidin-5-yl}-pyrazol-1-yl)-propionamide] the IC50 was 100 to 1000 nM. For `Cn1cc(-c2cccc(-c3ncc(-c4cnn(CC(=O)N5CCC6(CC5)COC6)c4)cn3)c2)cn1` [Example 86, 2-(4-{2-[3-(1-Methyl-1H-pyrazol-4-yl)-phenyl]-pyrimidin-5-yl}-pyrazol-1-yl)-1-(2-oxa-7-aza-spiro[3.5]non-7-yl)-ethanone], the IC50 was 100 to 1000 nM. `COCCC1CN(C(=O)Cn2cc(-c3cnc(-c4cccc(-c5cnn(C)c5)c4)nc3)cn2)CCO1` (stereo not drawn) [Example 87, 1-[2-(2-Methoxy-ethyl)-morpholin-4-yl]-2-(4-{2-[3-(1-methyl-1H-pyrazol-4-yl)-phenyl]-pyrimidin-5-yl}-pyrazol-1-yl)-ethanone] was tested, and the IC50 was 100 to 1000 nM. `COCC1CCCN(C(=O)Cn2cc(-c3cnc(-c4cccc(-c5cnn(C)c5)c4)nc3)cn2)C1` (stereo not drawn) [Example 88, 1-(3-Methoxymethyl-piperidin-1-yl)-2-(4-{2-[3-(1-methyl-1H-pyrazol-4-yl)-phenyl]-pyrimidin-5-yl}-pyrazol-1-yl)-ethanone] showed an IC50 of 100 to 1000 nM. `Cc1ncccc1CCn1cc(-c2cnc(-c3cccc(-c4cnn(C)c4)c3)nc2)cn1` [Example 89, 2-[3-(1-Methyl-1H-pyrazol-4-yl)-phenyl]-5-{1-[2-(2-methyl-pyridin-3-yl)-ethyl]-1H-pyrazol-4-yl}-pyrimidine] showed an IC50 of 100 to 1000 nM. `COC1CCN(C(=O)Cn2cc(-c3cnc(-c4cccc(-c5cnn(C)c5)c4)nc3)cn2)C1` (stereo not drawn) [Example 90, 1-(3-Methoxy-pyrrolidin-1-yl)-2-(4-{2-[3-(1-methyl-1H-pyrazol-4-yl)-phenyl]-pyrimidin-5-yl}-pyrazol-1-yl)-ethanone] was tested, and the IC50 was 100 to 1000 nM. For `CN(C(=O)Cn1cc(-c2cnc(-c3cccc(-c4cnn(C)c4)c3)nc2)cn1)C1CCOCC1` [Example 91, N-Methyl-2-(4-{2-[3-(1-methyl-1H-pyrazol-4-yl)-phenyl]-pyrimidin-5-yl}-pyrazol-1-yl)-N-(tetrahydro-pyran-4-yl)-acetamide], the IC50 was 100 to 1000 nM. Compound `Cn1cc(-c2cccc(-c3ncc(-c4cnn(CC(=O)N5C[C@@H]6C[C@H]5CO6)c4)cn3)c2)cn1` [Example 92, 2-(4-{2-[3-(1-Methyl-1H-pyrazol-4-yl)-phenyl]-pyrimidin-5-yl}-pyrazol-1-yl)-1-(1S,4S)-2-oxa-5-aza-bicyclo[2.2.1]hept-5-yl-ethanone] has an IC50 of 100 to 1000 nM. In the case of `Cn1cc(-c2cccc(-c3ncc(-c4cnn(CC(=O)N5CCCOCC5)c4)cn3)c2)cn1` [Example 93, 2-(4-{2-[3-(1-Methyl-1H-pyrazol-4-yl)-phenyl]-pyrimidin-5-yl}-pyrazol-1-yl)-1-[1,4]oxazepan-4-yl-ethanone], the IC50 is reported as 100 to 1000 nM. Work on `Cn1cc(-c2cccc(-c3ncc(-c4cnn(CC(=O)N5CC6CCC(C5)O6)c4)cn3)c2)cn1` [Example 94, 2-(4-{2-[3-(1-Methyl-1H-pyrazol-4-yl)-phenyl]-pyrimidin-5-yl}-pyrazol-1-yl)-1-(8-oxa-3-aza-bicyclo[3.2.1]oct-3-yl)-ethanone] yielded an IC50 of 100 to 1000 nM. `Cn1cc(-c2cccc(-c3ncc(-c4cnn(C5CCN(C6CCOCC6F)CC5)c4)cn3)c2)cn1` (stereo not drawn) [Example 95, Cis-5-{1-[1-(3-Fluoro-tetrahydro-pyran-4-yl)-piperidin-4-yl]-1H-pyrazol-4-yl}-2-[3-(1-methyl-1H-pyrazol-4-yl)-phenyl]-pyrimidine] showed an IC50 of 100 to 1000 nM. `COc1ccc(CCn2cc(-c3cnc(-c4cccc(-c5cnn(C)c5)c4)nc3)cn2)cc1OC` [Example 96, 5-{1-[2-(3,4-Dimethoxy-phenyl)-ethyl]-1H-pyrazol-4-yl}-2-[3-(1-methyl-1H-pyrazol-4-yl)-phenyl]-pyrimidine] showed an IC50 of 100 to 1000 nM. `Cn1cc(-c2cccc(-c3ncc(-c4cnn(C5CCOCC5)c4)cn3)c2)cn1` [Example 97, 2-[3-(1-Methyl-1H-pyrazol-4-yl)-phenyl]-5-[1-(tetrahydro-pyran-4-yl)-1H-pyrazol-4-yl]-pyrimidine] gave an IC50 of 100 to 1000 nM. `COCCn1cc(-c2cnc(-c3cccc(-c4cnn(C)c4)c3)nc2)cn1` [Example 98, 5-[1-(2-Methoxy-ethyl)-1H-pyrazol-4-yl]-2-[3-(1-methyl-1H-pyrazol-4-yl)-phenyl]-pyrimidine] was tested, and the IC50 was 100 to 1000 nM. `CC(C(=O)N(C)C)n1cc(-c2cnc(-c3cccc(-c4cnn(C)c4)c3)nc2)cn1` (stereo not drawn) [Example 99, N,N-Dimethyl-2-(4-{2-[3-(1-methyl-1H-pyrazol-4-yl)-phenyl]-pyrimidin-5-yl}-pyrazol-1-yl)-propionamide] gave an IC50 of 1000 to 5000 nM. Compound `COC1CN(C(=O)CCn2cc(-c3cnc(-c4cccc(-c5cnn(C)c5)c4)nc3)cn2)C1` [Example 100, 1-(3-Methoxy-azetidin-1-yl)-3-(4-{2-[3-(1-methyl-1H-pyrazol-4-yl)-phenyl]-pyrimidin-5-yl}-pyrazol-1-yl)-propan-1-one] has an IC50 of 1000 to 5000 nM. `Cn1cc(-c2cccc(-c3ncc(-c4cnn(CCC(=O)N5CC6(COC6)C5)c4)cn3)c2)cn1` [Example 101, 3-(4-{2-[3-(1-Methyl-1H-pyrazol-4-yl)-phenyl]-pyrimidin-5-yl}-pyrazol-1-yl)-1-(2-oxa-6-aza-spiro[3.3]hept-6-yl)-propan-1-one] gave an IC50 of 1000 to 5000 nM. With `CN1CCN(C(=O)CCn2cc(-c3cnc(-c4cccc(-c5cnn(C)c5)c4)nc3)cn2)CC1` [Example 102, 1-(4-Methyl-piperazin-1-yl)-3-(4-{2-[3-(1-methyl-1H-pyrazol-4-yl)-phenyl]-pyrimidin-5-yl}-pyrazol-1-yl)-propan-1-one] the IC50 was 1000 to 5000 nM.
